pEC50: −log10 of the molar value.
Columns and labels:
Format in all cases: cell-based
[1] = system: HUMAN RSV-A (“LONG” STRAIN); assay: RSV-A assay (CPE, ATPlite) in Hep-2 cells; settings: human respiratory syncytial virus, 120 h, MOI 0.1, 5-day incubation
How it was run: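 Protection from RSV cytopathic effect read by ATP luminescence (ATPlite) after 5-day culture. Genotype A "Long" virus added at MOI 0.1 to Hep-2 monolayers at 8,000 cells/well, pre-dosed with duplicate 2-fold compound dilutions; controls include infected untreated and uninfected wells. EC50 values binned into ranges.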

hMPV A2 TN/94-49 [2] = assay: HMPV antiviral assay Method 1 (LLC-MK2 cells, ATP-Lite); settings: hMPV A2 TN/94-49, LLC-MK2 cells
How it was run: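 LLC-MK2 cells infected in suspension with hMPV A2 TN/94-49 at MOI 0.005, 5,000 cells/well, in serum-free OptiMEM with 2 μg/mL TPCK-trypsin (final) and CaCl2; compounds in duplicate, 10 points, 2 μM top, 2.5-fold dilutions. After 7 days at 37 °C, cell health by ATP-Lite luminescence; EC50 by four-parameter fit.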

hMPV A2 TN/94-49 [3] = assay: HMPV antiviral assay Method 2 (LLC-MK2 cells with CP-100-356, ATP-Lite); settings: hMPV A2 TN/94-49, LLC-MK2 cells, 4 μM CP-100-356, Method 2
How it was run: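 The protective effect was measured after 7 days at 37 °C by ATP-Lite luminescence and expressed as % cell health relative to virus-only and cells-only wells, with EC50 from a four-parameter logistic. Cells were LLC-MK2 infected with strain A2 TN/94-49 (MOI 0.16) with final 2 μM CP-100-356 and 2 μg/mL TPCK-trypsin; 10 duplicate concentrations from 200 nM, 2.5-fold steps.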

Row | Compound | pEC50 [1] | pEC50 (hMPV A2 TN/94-49 [2]) | pEC50 (hMPV A2 TN/94-49 [3])
1 | C[C@]1(C(N)=O)COc2c1cc([C@@](O)(CNC(=O)c1cc(OC3CC3)c3nn(C4CC4)cc3c1)C1CC1)nc2-c1ccc(F)c(Cl)c1Cl [Example 23] | > 6.70 | > 6.30 | > 6.70
2 | COc1cc(C(=O)NC[C@@](O)(c2ccccc2)c2cc3c(c(-c4cc(Cl)c(F)cc4F)n2)OC[C@]3(C)C(N)=O)cc2cc(C(F)F)nnc12 [Example 186] | > 6.70 | < 6.30 | > 6.70
3 | COc1cc(C(=O)NC[C@@](O)(c2ccccc2)c2cc3c(c(-c4cc(F)c(F)cc4F)n2)OC[C@]3(C)C(N)=O)cc2cn(C(F)F)nc12 [Example 172] | > 6.70 | > 6.30 | > 6.70
4 | COc1cc(C(=O)NC[C@@](O)(c2ccccc2)c2cc3c(c(-c4ccc(F)c(F)c4Cl)n2)OC[C@]3(C)C(N)=O)cc2cn(C(F)F)nc12 [Example 213] | > 6.70 | > 6.30 | > 6.70
5 | COc1cc(C(=O)NC[C@@](O)(c2ccc(F)cc2)c2cc3c(c(-c4ccc(F)c(Cl)c4Cl)n2)OC[C@]3(C)C(N)=O)cc2cn(C3(F)CC3)nc12 [Example 43] | > 6.70 | > 6.30 | > 6.70
6 | C[C@]1(C(N)=O)COc2c1cc([C@@](O)(CNC(=O)c1cc(OCCO)c3nn(C4CC4)cc3c1)C1CC1)nc2-c1ccc(F)c(Cl)c1F [Example 37] | > 6.70 | < 6.30 | > 6.70
7 | COc1cc(C(=O)NC[C@@](O)(c2ccccc2)c2cc3c(c(-c4cc(Cl)c(F)cc4F)n2)OC[C@]3(C)C(N)=O)cc2cc(Br)cnc12 [Example 185] | > 6.70 | > 6.30 | > 6.70
8 | COc1ccc([C@](O)(CNC(=O)c2cc(OC)c3nn(C4(F)CC4)cc3c2)c2cc3c(c(-c4cc(Cl)c(F)cc4F)n2)OC[C@]3(C)C(N)=O)cc1 [Example 166] | > 6.70 | > 6.30 | > 6.70
9 | COc1cc(C(=O)NC[C@@](O)(c2ccc(F)cc2)c2cc3c(c(-c4ccc(F)c(Cl)c4Cl)n2)OC[C@]3(C)C(N)=O)cc2cn(C3CC3)nc12 [Example 41] | > 6.70 | > 6.30 | > 6.70
10 | COc1cc(C(=O)NC[C@@](O)(c2ccccc2)c2cc3c(c(-c4ccc(F)c(Cl)c4Cl)n2)OC[C@]3(C)C(N)=O)cc2cn(C3(F)CC3)nc12 [Example 259] | > 6.70 | > 6.30 | > 6.70
11 | C[C@]1(C(N)=O)COc2c1cc([C@@](O)(CNC(=O)c1ccc3nc(C4CC4)oc3c1)c1ccccc1)nc2-c1cc(Cl)c(F)cc1F [Example 88] | > 6.70 | > 6.30 | > 6.70
12 | COc1cc(C(=O)NC[C@](O)(c2cc3c(c(-c4ccc(F)c(Cl)c4Cl)n2)OC[C@]3(C)C(N)=O)C(F)(F)F)cc2cn(C3CC3)nc12 [Example 65] | > 6.70 | > 6.30 | > 6.70
13 | COc1cc(C(=O)NC[C@@](O)(c2ccccc2)c2cc3c(c(-c4ccc5c(c4)OC(F)(F)O5)n2)OC[C@]3(C)C(N)=O)cc2cn(C3(F)CC3)nc12 [Example 19] | > 6.70 | > 6.30 | > 6.70
14 | COc1cc(C(=O)NC[C@@](O)(c2ccccc2)c2cc3c(c(-c4cc(Cl)ccc4F)n2)OC[C@]3(C)C(N)=O)cc2cc(C3CC3)nn12 [Example 146] | > 6.70 | > 6.30 | > 6.70
15 | COc1cc(C(=O)NC[C@](O)(c2cc3c(c(-c4ccc(F)c(F)c4C)n2)OC[C@]3(C)C(N)=O)C2CC2)cc2cn(C3CC3)nc12 [Example 70] | > 6.70 | > 6.30 | > 6.70
16 | COc1cc(C(=O)NC[C@@](O)(c2cccc(F)c2)c2cc3c(c(-c4cc(Cl)c(F)cc4F)n2)OC[C@]3(C)C(N)=O)cc2cc(C3CC3)nn12 [Example 133] | > 6.70 | > 6.30 | > 6.70
17 | COc1cc(C(=O)NC[C@@](O)(c2ccccc2)c2cc3c(c(-c4cc(Cl)c(F)cc4F)n2)OC[C@]3(C)C(N)=O)cc2sc(N)nc12 [Example 157] | > 6.70 | > 6.30 | > 6.70
18 | COc1cc(C(=O)NC[C@](O)(c2cc3c(c(-c4cc(F)c(F)cc4C)n2)OC[C@]3(C)C(N)=O)C2CC2)cc2cn(C3CC3)nc12 [Example 50] | > 6.70 | < 6.30 | > 6.70
19 | C[C@]1(C(N)=O)COc2c1cc([C@@](O)(CNC(=O)c1cc(OC3CC3)c3nc(C4CC4)sc3c1)C1CC1)nc2-c1cc(Cl)c(F)cc1F [Example 3] | > 6.70 | > 6.30 | > 6.70
20 | CCc1cc(-c2nc([C@@](O)(CNC(=O)c3cc(OC)c4nn(C5CC5)cc4c3)C3CC3)cc3c2OC[C@]3(C)C(N)=O)ccc1F [Example 71] | > 6.70 | < 6.30 | < 6.70

Next, values leading:

Row | pEC50 [1] | pEC50 (hMPV A2 TN/94-49 [2]) | pEC50 (hMPV A2 TN/94-49 [3]) | Compound
21 | > 6.70 | > 6.30 | > 6.70 | COc1cc(C(=O)NC[C@@](O)(c2ccccc2)c2cc3c(c(-c4ccc(F)c(Cl)c4Cl)n2)OC[C@]3(C)C(N)=O)cc2oc(C)nc12 [Example 277]
22 | > 6.70 | > 6.30 | > 6.70 | COc1cc(C(=O)NC[C@@](O)(c2ccccc2)c2cc3c(c(-c4cc(C(F)F)c(F)cc4F)n2)OC[C@]3(C)C(N)=O)cc2cn(C3(F)CC3)nc12 [Example 298]
23 | > 6.70 | > 6.30 | > 6.70 | COc1cc(C(=O)NC[C@@](O)(c2ccccc2)c2cc3c(c(-c4cc(C(F)F)c(F)cc4F)n2)OC[C@]3(C)C(N)=O)cc2oc(C3CC3)nc12 [Example 299]
24 | > 6.70 | < 6.30 | > 6.70 | COc1cc(C(=O)NCC(O)(c2cc3c(c(-c4cc(Cl)c(F)cc4F)n2)OC[C@]3(C)C(N)=O)c2cc(C(F)F)cs2)cc2cn(C3CC3)nc12 (stereo partly drawn) [Example 468]
25 | > 6.70 | > 6.30 | > 6.70 | COc1cc(C(=O)NC[C@@](O)(c2cccc(F)c2)c2cc3c(c(-c4ccc(F)c(Cl)c4Cl)n2)OC[C@]3(C)C(N)=O)cc2cn(C3CC3)nc12 [Example 268]
26 | > 6.70 | > 6.30 | > 6.70 | COc1cc(C(=O)NC[C@@](O)(c2ccc(F)cc2)c2cc3c(c(-c4ccc5c(c4Cl)OC(F)(F)O5)n2)OC[C@]3(C)C(N)=O)cc2cn(C3(F)CC3)nc12 [Example 263]
27 | > 6.70 | > 6.30 | > 6.70 | COc1cc(C(=O)NC[C@@](O)(c2ccccc2)c2cc3c(c(-c4ccc(F)c(Cl)c4Cl)n2)OC[C@]3(C)C(N)=O)cc2cc(C)nnc12 [Example 289]
28 | > 6.70 | > 6.30 | > 6.70 | COc1cc(C(=O)NC[C@@](O)(c2cccc(F)c2)c2cc3c(c(-c4ccc5c(c4Cl)OC(F)(F)O5)n2)OC[C@]3(C)C(N)=O)cc2cn(C3(F)CC3)nc12 [Example 275]
29 | > 6.70 | > 6.30 | > 6.70 | COc1cc(C(=O)NC[C@@](O)(c2cccc(F)c2)c2cc3c(c(-c4cccc(Cl)c4Cl)n2)OC[C@]3(C)C(N)=O)cc2cn(C3(F)CC3)nc12 [Example 291]
30 | > 6.70 | > 6.30 | > 6.70 | COc1cc(C(=O)NC[C@](O)(c2cc3c(c(-c4cc(Cl)c(F)cc4F)n2)OC[C@]3(C)C(N)=O)c2cccs2)cc2cn(C3CC3)nc12 [Example 474]
31 | > 6.70 | > 6.30 | > 6.70 | COc1cc(C(=O)NC[C@@](O)(c2cccc(F)c2)c2cc3c(c(-c4ccc5c(c4Cl)OC(F)(F)O5)n2)OC[C@]3(C)C(N)=O)cc2cn(C(F)F)nc12 [Example 276]
32 | > 6.70 | > 6.30 | > 6.70 | C[C@]1(C(N)=O)COc2c1cc([C@@](O)(CNC(=O)c1ccc3nc(C4CC4)oc3c1)c1cccc(F)c1)nc2-c1ccc2c(c1Cl)OC(F)(F)O2 [Example 287]
33 | > 6.70 | > 6.30 | > 6.70 | COc1cc(C(=O)NC[C@](O)(c2cc3c(c(-c4cc(Cl)c(F)cc4F)n2)OC[C@]3(C)C(N)=O)c2nccs2)cc2cn(C3CC3)nc12 [Example 475]
34 | > 6.70 | > 6.30 | > 6.70 | COc1cc(C(=O)NCC(O)(c2cc3c(c(-c4cc(Cl)c(F)cc4F)n2)OC[C@]3(C)C(N)=O)c2ccc(C)s2)cc2cn(C3CC3)nc12 (stereo partly drawn) [Example 470]
35 | > 6.70 | > 6.30 | > 6.70 | COc1cc(C(=O)NC[C@@](O)(c2ccc(F)cc2)c2cc3c(c(-c4ccc5c(c4Cl)OC(F)(F)O5)n2)OC[C@]3(C)C(N)=O)cc2cn(C(F)F)nc12 [Example 264]
36 | > 6.70 | > 6.30 | > 6.70 | COc1cc(C(=O)NC[C@@](O)(c2cccc(F)c2)c2cc3c(c(-c4ccc(F)c(Cl)c4Cl)n2)OC[C@]3(C)C(N)=O)cc2cn(C(F)F)nc12 [Example 270]
37 | > 6.70 | > 6.30 | > 6.70 | COc1cc(C(=O)NC[C@@](O)(c2cccc(F)c2)c2cc3c(c(-c4ccc(F)c(Cl)c4Cl)n2)OC[C@]3(C)C(N)=O)cc2cn(C3(F)CC3)nc12 [Example 269]
38 | > 6.70 | > 6.30 | > 6.70 | COc1cc(C(=O)NC[C@@](O)(c2cccc(F)c2)c2cc3c(c(-c4cc(C(F)(F)F)c(F)cc4F)n2)OC[C@]3(C)C(N)=O)cc2cn(C3(F)CC3)nc12 [Example 296]
